{"source": "patent US20100041632A1", "about": "“USES OF THE CARBOXY-AMIDO-TRIAZOLE COMPOUNDS AND SALTS THEREOF” (priority 2006, published 2010)", "key": {"Kunming mice [1]": {"tested_on": "Kunming mice", "assay": "Effect of CAI on drug addiction caused by morphine (naloxone-induced jumping)", "conditions": "mouse, in vivo", "experimental": "160 Kunming mice (18-22 g, half male and half female) were divided into 4 groups randomly, with 40 mice per group:\nControl group with solvent, PEG400/N.S. (10 μl/g/day PEG400, (ig), 4 days);\nGroup treated with CAI, CAI/N.S. (CAI is resolved in PEG400 to reach a final concentration of […], 20 mg CAI/kg/day was administered (ig) for 4 days, N.S. was taken according to morphine administration in table 1);\nGroup treated with morphine, PEG400/morphine (10 μl/g/day PEG400 was administered (ig) for 4 days, morphine was administered according to the table below);\n4 hours after the morphine administration on the fifth day, animals of each group was injected (ip) with 1 mg/kg naloxone and then put into a tank (5000 ml) immediately. The jump frequency in 30 minutes was recorded. Two-factor analysis of variance by SPSS was performed to analyse the experiment results."}, "Kunming mice [2]": {"tested_on": "Kunming mice", "assay": "Formalin test (analgesic effect)", "assay_type": "in vivo", "experimental": "320 Kunming mice (18-22 g, half male and half female) were divided into 4 groups randomly with 80 animals in each group.\nControl group with dissolvent (PEG400/N.S.): 10 μl PEG400 was administered (ig) twice with the interval of 24 hours. The pain intensity test was carried out 8 hours after the second administration. 200 μl N.S. is injected (sc) 5 minutes before the test.\n(§1) Morphine/PEG400 group: 10 μl PEG400 was administered (ig) twice with the interval of 24 hours. The pain intensity test was carried out 8 hours after the second administration. Morphine (2 mg/kg body weight) was injected (sc) 5 minutes before the test.\n(§2) CAI/N.S. group: CAI (20 mg/kg body weight, 2 mg/ml) was administered (ig) twice with the interval of 24 hours. The pain intensity test was carried out 8 hours after the second administration. 200 μl N.S. was injected (sc) 5 minutes before the test.\n(§3) The pain intensity test was carried out 8 hours after the second administration. Morphine (2 mg/kg body weight) was injected (sc) 5 minutes before the test.\n5 minutes after the morphine or N.S. injection, 20 μl 2% formalin was injected (sc) into the subplantar space of the hind paw. The animals were placed immediately in a glass cylinder hanging on a holder, with a mirror placed below with 30° slope to observe the paw responses. The pain responses of the animals with injected paws were recorded; a pain ranking was recorded as follows: 3=the injected paw is licked, bitten, or shaken; 2=the injected paw is elevated and is not in contact with any other surface; 1=the injected paw has little or no weight on it; 0=the injected paw is not favored. The duration of each of the 4 behavioral categories was recorded. The observation lasted for 15 minutes. A pain intensity score was calculated by multiplying the amount of time spent in each category by its assigned category score and adding these products together."}, "Kunming mice [3]": {"tested_on": "Kunming mice", "assay": "Hot plate test (analgesic effect)", "assay_type": "in vivo", "experimental": "Kunming mice (18-22 g, female) were randomly divided into 4 groups with 20 animals per group.\n(§4) Control group with dissolvent: 10 μl PEG400 was administered (ig) twice with the interval of 24 hours. The pain intensity test was carried out 8 hours after the second administration. 200 μl N.S. was injected (sc) 5 minutes before the test.\nas §1, §2, §3\nThe mice were placed onto a hot plate (53±0.5° C.) and the latency periods (second) of hopping responses were recorded as the pain threshold index."}, "Kunming mice [4]": {"tested_on": "Kunming mice", "assay": "Radiant heat test (tail-flick)", "assay_type": "in vivo", "experimental": "The radiant heat dolorimeter (Collumbus Instruments) is used in this model with the tail-flick mode and the exposure rate of 20. The latency periods (TFL) starting from the beginning of exposure to the tail-flick responses were recorded as the pain threshold. The exposure time lasted for 16 seconds.\nKunming mice (18-22 g, male) are tested for the basic pain threshold before the test with drug administration, and those with pain threshold longer than 16 seconds are excluded. The selected mice are divided into 4 groups with 15 animals per group.\nas §4, §1, §2\nThe pain intensity test was carried out 8 hours after the second administration, morphine (2 mg/kg body weight) was injected (sc) 5 minutes before the test.\nThe pain threshold of each mouse was tested before and after morphine or N.S. injection. The values after drug administration minus those before drug administration were considered to be the changing index of pain threshold."}, "Kunming mice [5]": {"tested_on": "Kunming mice", "assay": "Mouse writhing test (acetic acid)", "assay_type": "in vivo", "conditions": "20 mg/kg ig for 4 days", "experimental": "Kunming mice (18-22 g, male) were randomly divided into several groups with 20 animals in each group.\nControl group: PEG400 was administered (ig) for 4 days, 0.1 ml/10 g body weight.\nTest groups: CAI and its analogues (compounds with structural formula of A, R1═Cl or H, R2═Cl, H, Br, CH3 or CF3, R3═Cl, Br, CF3, NO2 or CN, X═O, S or C═O; The compounds are listed in Table 6 (A1˜A10)) were administered (ig) for 4 days (20 mg/kg body weight, 2 mg/ml).\nThe pain intensity test was carried out 8 hours after the last drug administration. 0.6% acetic acid (0.1 ml/10 g body weight) was injected (ip). The animals were put into a glass cylinder immediately. The writhing frequency in the following 5-15 minutes was recorded."}, "TNF-α": {"tested_on": "TNF-α", "assay": "TNF-α levels in paw tissue and serum of adjuvant arthritis rat (ELISA)", "assay_type": "in vivo", "conditions": "AA rats, day 29, ELISA", "experimental": "(§5) Blood was collected from eve socket on day 29 and left in room temperature to allow coagulating. Then serum was separated by centrifugation at 3000 rpm for 10 min and kept in −20° C. After animals were sacrificed, the subcutaneous tissue of the right hind paw and that surrounding the tarsotibial joints was removed, broke into pieces, and placed in 5 ml normal saline (0.9%). The tissues were homogenized in a high speed homogenizer. Then the homogenate was centrifuged at 4° C. and 10,000 rpm for 15 min. The supernatants were collected and stored at −20° C. until further analysis.\n(§6) IL-1β and TNF-α levels in paw tissue and serum were measured using specific rat ELISA kits according to the manufacturer's instructions."}, "IL-1β": {"tested_on": "IL-1β", "assay": "IL-1β levels in paw tissue and serum of adjuvant arthritis rat (ELISA)", "assay_type": "in vivo", "conditions": "AA rats, day 29, ELISA", "experimental": "as §5, with “The adjuvant arthritis rat was prepared as described in example 8. Treatment was performed as described in example 8. Blood” for “Blood”\nas §6"}}, "data": [{"smiles": "NC(=O)c1nnn(Cc2cc(Cl)c(C(=O)c3ccc(Cl)cc3)c(Cl)c2)c1N", "note": "[CAI, 5-amino-1-[3,5-dichloro-4-(4-chlorobenzoyl chloride)benzyl]-1H-1,2,3-triazole-4-carboxamide]", "values": [{"measurement": "Addiction / withdrawal syndrome (in words)", "setting": "Kunming mice [1]", "result": "does not cause addiction"}, {"measurement": "Pain intensity score (mean ± std)", "setting": "Kunming mice [2]; 2% formalin sc hind paw, 15 minutes observation, CAI 20 mg/kg ig twice, morphine 2 mg/kg sc", "result": "1007 ± 255"}, {"measurement": "Analgesic effect in formalin test (in words)", "setting": "Kunming mice [2]; pain scores compared with the control group", "result": "decrease significantly"}, {"measurement": "Pain threshold (sec, mean ± std)", "setting": "Kunming mice [3]; hot plate 53±0.5° C., latency of hopping response, CAI 20 mg/kg ig twice, morphine 2 mg/kg sc", "result": "19.9 ± 6.2", "unit": "s"}, {"measurement": "Analgesic effect in hot plate test (in words)", "setting": "Kunming mice [3]; two-factor ANOVA", "result": "neither have obvious analgesic effect alone"}, {"measurement": "Analgesic effect in radiant heat test (in words)", "setting": "Kunming mice [4]; compared with the control group", "result": "neither have obvious analgesic effect alone"}, {"measurement": "Pain threshold change (seconds, mean ± std)", "setting": "Kunming mice [4]; tail-flick latency after minus before drug, CAI 20 mg/kg ig twice, morphine 2 mg/kg sc", "result": "2.56 ± 2.62", "unit": "s"}, {"measurement": "Analgesic effect in writhing test (in words)", "setting": "Kunming mice [5]", "result": "obvious analgesic effect"}, {"measurement": "Writhing frequency mean ± std", "setting": "Kunming mice [5]; 0.6% acetic acid ip, writhing in following 5-15 minutes", "result": "8.1 ± 2.3"}, {"measurement": "TNF-α levels in paw tissue and serum (in words)", "setting": "TNF-α", "result": "significantly reduced"}, {"measurement": "IL-1β levels in paw tissue and serum (in words)", "setting": "IL-1β", "result": "significantly reduced"}]}]}
